Consider 20 molecules from patent US7919508B2, “3-piperidinylisochroman-5-ols as dopamine agonists” (Aventis Pharmaceuticals Inc., priority 2004, dated 2011).

Counter-ions that a name gives are not always drawn.

For assay [1], the target named is T1, human dopamine D1 receptor (Homo sapiens, UniProt P21728).
T1 construct: A 1.4 Kb Hind III to Xho I fragment was subcloned into the vector pMMLV; expressed in transfected cells; host or cells: CHO cells, clone CHO-D1M#9 (plasmid pHD1MMLV), membranes
T1 sequence (P21728 whole entry, the tested form may be a part): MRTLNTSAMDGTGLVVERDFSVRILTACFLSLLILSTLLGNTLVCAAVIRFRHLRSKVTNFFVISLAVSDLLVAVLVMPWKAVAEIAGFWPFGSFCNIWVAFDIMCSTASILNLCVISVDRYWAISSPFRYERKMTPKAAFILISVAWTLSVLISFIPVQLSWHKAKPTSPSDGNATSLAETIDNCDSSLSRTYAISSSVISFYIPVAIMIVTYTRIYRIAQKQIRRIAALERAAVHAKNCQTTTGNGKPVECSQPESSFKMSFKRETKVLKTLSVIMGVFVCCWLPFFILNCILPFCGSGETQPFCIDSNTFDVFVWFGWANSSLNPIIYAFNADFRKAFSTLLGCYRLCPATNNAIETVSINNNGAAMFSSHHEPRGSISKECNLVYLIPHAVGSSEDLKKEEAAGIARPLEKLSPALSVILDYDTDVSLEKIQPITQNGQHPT
The assay can be described thus: [3H]-SCH-23390 binding to cloned human dopamine D1 receptors (CHO cell membranes). To be noted: competitive binding, [3H]-SCH-23390, cloned human D1 in CHO membranes; read-out: D1 affinity Ki.

A further assay has as its target T2, D1 receptor (Homo sapiens, UniProt P21728).
T2 construct: expressed in transfected cells; host or cells: D1 transfected CHO cell line
As to the kind of experiment: D1 Activation Adenylyl Cyclase Assay (cAMP FlashPlate, D1 transfected CHO cell line). The assay is classed as cell-based. As to conditions: agonist activity at the D1 receptor, adenylate cyclase assay, D1 transfected CHO cell line; read-out: D1 EC50. The method, then:
D1 Activation Adenylyl Cyclase Assay
Purpose: To measure D1-agonist activity compounds using an Adenylyl Cyclase Activation Flash Plate Assay from NEN.
Buffers: Activation and Detection buffers are provided from NEN: Catalog # SMP004A.
Maintenance of D1 transfected CHO cell line: • 1. Cells are grown in a 150 cc flask in an incubator at 37° C. with 5% CO2 for 2-3 days (4 maximum) until confluent. • 2. Aspirate off old media (Cells adhere to the plastic flask), wash 2× with sterile PBS. • 3. Add ˜5 mL of Trypsin EDTA (enough to cover bottom of the flask) for 5 min. at RT. • 4. Stop digestion with 15 mL of Media (Ham's F12 plus 10% FBS, 1% P/S, 400 μg/mL G418). • Bang flask on counter to release them from the flask. • 5. Add 2 mL of this to 30 mL of Media in a fresh flask. Return to incubator. Preparation of Cells for Assay: • 1. Loosen the cells with 5 mL Vercine (EDTA)/flask for 10 minutes in incubator. • 2. Add 20 mL of Serum-free media/flask. Transfer to 50-mL Falcon tube. • 3. Spin down cells at 1000 RPM for 5 minutes at 4° C. • 4. Aspirate off old media and resuspend in 5 mL of Serum-free media/plate to be done. • 5. Dilute 10 μL 1/10 in 90 μL Trypan Blue solution and count with a hemocytometer. • Count (live cells only) all four areas and average them. • Count X 10^5 equals cells/mL (including accounting for dilution in Trypan). • 6. Dilute to 50,000 cells/50 μL (1,000,000 cells/mL) in Serum-free media. • 7. Put 50 μL/well in Rows 3-12 of a cAMP FlashPlate. • 8. Put in incubator at 37° C. for 2-4 hours, to allow cells to recover and attach. Adenylyl Cyclase Activation Assay: • 1. Prepare the cAMP standards: • Add 130 μL/well of stimulation buffer to each row of a separate 96-well “standard” plate, 2 columns/plate. • Dilute stock cAMP standard 1/5 with stimulation buffer (final concentration is 1000 pmol/mL). Add 130 μL of this to row A. • Make 1/2 serial dilutions by adding 130 μL from each well to the next (A-G), mixing between each. • Final concentrations are: • A: 500, B: 250, C: 125, D: 62.5, E: 31.25, F: 15.6, G: 7.8, H: 0 pmol/mL. • Place 100 μL from each row from 2 columns of the standard plate into columns 1 and 2 of each “reaction” plate. • 2. Prepare the negative and positive control in the “reaction” plate: • Column 3, rows A-D, add 100 μL stimulation buffer (negative control). • Column 3, rows E-H, add 90 μL of stimulation buffer plus 10 μL of 200 μM APO (positive control, […]). (10 μL 10 mM APO, plus 490 μL stim. buffer=1/50 dilution.) • 3. Prepare the agonist compound dilutions in the “compound” plate: • Add 80 μL of stimulation buffer to row A (One column for each compound), and 90 μL of stimulation buffer to rows B—H. • Add 20 μL of 10 mM of each compound to appropriate row A. • Make 1/10 serial dilutions by adding 10 μL from each well to the next (A-H), mixing between each. • 4. […]. Prepare Detection/Stop buffer by adding 90 μL/plate of cAMP-^125I to 10 mL/plate plus 6 mL (for dead volume) of detection buffer. Steps 6-8 performed with the Multi-Mek. • 6. Add 50 μL to each well of the FlashPlate with CHO cells set up earlier. • 7. Incubate at RT for 8 minutes. • 8. Stop reaction by adding 100 μL of detection/stop buffer to each well. • 9. Cover with plastic film and incubate at RT for 16-24 hours (don't wait more than 24 hours). • 10. Count in a Packard Top-Count. Calculations: • 1. Raw signals generated by cAMP standard wells, without cells, are averaged at each cAMP concentration and converted to % B/Bo by dividing the raw signal at each cAMP concentration by the raw signal with no cAMP added. • 2. These values are used to generate a standard curve by plotting cAMP concentration versus % B/Bo. • 3. Raw data for each compound at each concentration is also converted to % B/B. by the same method. • 4. These values are then converted to pmol cAMP/mL using the standard curve. • 5. These cAMP values are then averaged across the three replicates for each compound concentration. • 6. […]

T2 sequence (P21728 whole entry): as the sequence (P21728 whole entry, the tested form may be a part) above

As usually defined, the Ki is a dissociation constant, usually derived from enzyme kinetics or from competition with a known ligand. A word on the EC50: it is the midpoint of the concentration-response curve. With `Cc1ccc2c(c1O)C[C@@H](C1CCN(CCCC(c3ccc(F)cc3)c3ccc(F)cc3)CC1)O[C@H]2CN` [Example 108, (1R,3S)-1-Aminomethyl-3-{1-[4,4-bis-(4-fluoro-phenyl)-butyl]-piperidin-4-yl}-6-methyl-isochroman-5-ol dihydrobromide], the Ki in assay [1] turned out to be 110 nM. On D1 receptor, the EC50 turned out to be 36 nM.

Turning to `COc1ccc(CN2CCC([C@@H]3Cc4c(ccc(C)c4O)[C@H](CN)O3)CC2)cc1` [Example 61, (1R,3S)-1-Aminomethyl-3-[1-(4-methoxy-benzyl)-piperidin-4-yl]-6-methyl-isochroman-5-ol dihydrochloride], the Ki in assay [1] was found to be 19.8 nM. The EC50 on D1 receptor worked out at 47 nM.

Consider `CNC[C@@H]1O[C@H](C2CCN(Cc3ccc(C(F)(F)F)cc3)CC2)Cc2c1ccc(C)c2O` [Example 181, (1R,3S)-6-Methyl-1-methylaminomethyl-3-[1-(4-trifluoromethyl-benzyl)-piperidin-4-yl]-isochroman-5-ol hydrochloride], for which the Ki in assay [1] was 21 nM. For the same molecule, at D1 receptor, the EC50 worked out at 220 nM.

As to `Cc1ccc2c(c1O)C[C@@H](C1CCN(Cc3ccoc3)CC1)O[C@H]2CN` [Example 71, (1R,3S)-1-Aminomethyl-3-(1-furan-3-ylmethyl-piperidin-4-yl)-6-methyl-isochroman-5-ol hydrochloride], the Ki in assay [1] was 94.2 nM. Besides, the EC50 at D1 receptor was 420 nM.

With `Cc1ccc2c(c1O)C[C@@H](C1CCN(Cc3ccc(C(F)(F)F)cc3)CC1)O[C@H]2CN(C)C` [Example 168, (1R,3S)-1-Dimethylaminomethyl-6-methyl-i-3-[1-(4-trifluoromethylbenzyl)piperidin-4-yl]-isochroman-5-ol], the Ki in assay [1] was determined as 45 nM. Further, on D1 receptor, the EC50 was found to be 31000 nM.

With `Cc1ccc(CN2CCC([C@@H]3Cc4c(ccc(C)c4O)[C@H](CN)O3)CC2)cc1` [Example 66, (1R,3S)-1-Aminomethyl-6-methyl-3-[1-(4-methyl-benzyl)-piperidin-4-yl]-isochroman-5-ol dihydrochloride], the inhibition constant Ki in assay [1] was 75.7 nM. Moreover, the EC50 on D1 receptor was 6 nM.

Regarding `Cc1ccc2c(c1O)C[C@@H](C1CCN(Cc3cccc(F)c3)CC1)O[C@H]2CN` [Example 69, (1R,3S)-1-Aminomethyl-3-[1-(3-fluoro-benzyl)-piperidin-4-yl]-6-methyl-isochroman-5-ol dihydrochloride], the Ki in assay [1] stood at 32.5 nM. Besides, the EC50 on D1 receptor turned out to be 10 nM.

Consider `CCNC[C@@H]1O[C@H](C2CCN(Cc3ccc(C(F)(F)F)cc3)CC2)Cc2c1ccc(C)c2O` [Example 182, (1R,3S)-1-Ethylaminomethyl-6-methyl-3-[1-(4-trifluoromethyl-benzyl)-piperidin-4-yl]-isochroman-5-ol], for which, in assay [1], the Ki amounted to 255 nM. In addition, at D1 receptor, the EC50 amounted to 1300 nM.

In the case of `Cc1ccc2c(c1O)C[C@@H](C1CCN(Cc3ccccc3)CC1)O[C@H]2CN` [Example 93, (1R,3S)-1-Aminomethyl-3-[1-(benzyl)-piperidin-4-yl]-6-methyl-isochroman-5-ol dihydrobromide], the 50% effective concentration (EC50) on D1 receptor is 45 nM.

As to `Cc1ccc(C(=O)NC(C)CCN2CCC([C@@H]3Cc4c(ccc(C)c4O)[C@H](CN)O3)CC2)cc1` (stereo partly drawn) [Example 15, N-{3-[4-((1R,3S)-1-Aminomethyl-5-hydroxy-6-methyl-isochroman-3-yl)-piperidin-1-yl]-1-methyl-propyl}-4-methyl-benzamide dihydrochloride], the Ki in assay [1] was determined as 126 nM. Also, the EC50 on D1 receptor is 11 nM.

Turning to `Cc1ccc2c(c1O)C[C@@H](C1CCN(Cc3ccc(Cl)cc3)CC1)O[C@H]2CN` [Example 58, (1R,3S)-1-Aminomethyl-3-[1-(4-chloro-benzyl)-piperidin-4-yl]-6-methyl-isochroman-5-ol dihydrochloride], the Ki in assay [1] came to 52 nM. Further, on D1 receptor, the concentration for a half-maximal effect (EC50) is 10 nM.

With `CNC[C@@H]1O[C@H](C2CCN(C)CC2)Cc2c1ccc(C)c2O` [Example 102, (1R,3S)-6-Methyl-1-methylaminomethyl-3-(1-methyl-piperidin-4-yl)-isochroman-5-ol dihydrobromide], in assay [1], the Ki was 147 nM. Besides, the EC50 at D1 receptor worked out at 1500 nM.

Regarding `Cc1ccc2c(c1O)C[C@@H](C1CCN(CCCc3ccccc3)CC1)O[C@H]2CN` [Example 110, (1R,3S)-1-Aminomethyl-6-methyl-3-[1-(3-phenyl-propyl)-piperidin-4-yl]-isochroman-5-ol dihydrochloride], the EC50 on D1 receptor worked out at 6 nM.

As to `Cc1ccc2c(c1O)C[C@@H](C1CCN(CCC(C)c3ccccc3)CC1)O[C@H]2CN` (stereo partly drawn) [Example 27, (1R,3S)-1-Aminomethyl-6-methyl-3-[1-(3-phenyl-butyl)-piperidin-4-yl]-isochroman-5-ol dihydrobromide], the EC50 on D1 receptor worked out at 280 nM.

As for `Cc1ccc2c(c1O)C[C@@H](C1CCN(Cc3ccsc3)CC1)O[C@H]2CN` [Example 67, (1R,3S)-1-Aminomethyl-6-methyl-3-(1-thiophen-3-ylmethyl-piperidin-4-yl)-isochroman-5-ol dihydrochloride], the Ki in assay [1] was determined as 62.6 nM. Besides, at D1 receptor, the EC50 turned out to be 9 nM.

On to `Cc1ccc2c(c1O)C[C@@H](C1CCN(CCC(C)NC(=O)c3ccc(Br)cc3)CC1)O[C@H]2CN` (stereo partly drawn) [Example 23, N-{3-[4-((1R,3S)-1-Aminomethyl-5-hydroxy-6-methyl-isochroman-3-yl)-piperidin-1-yl]-1-methyl-propyl}-4-bromo-benzamide dihydrochloride], for which the Ki in assay [1] amounted to 91.8 nM. Also, the EC50 at D1 receptor is 59 nM.

Consider `CCN(C)C[C@@H]1O[C@H](C2CCN(Cc3ccc(C(F)(F)F)cc3)CC2)Cc2c1ccc(C)c2O` [Example 183, (1R,3S)-1-[(Ethyl-methyl-amino)-methyl]-6-methyl-3-[1-(4-trifluoromethyl-benzyl)-piperidin-4-yl]-isochroman-5-ol], for which the Ki in assay [1] came out at 123 nM. Moreover, the EC50 on D1 receptor was found to be 7000 nM.

Consider `Cc1ccc2c(c1O)C[C@@H](C1CCN(Cc3ccc(C(F)(F)F)cc3F)CC1)O[C@H]2CN` [Example 70, (1R,3S)-1-Aminomethyl-3-[1-(2-fluoro-4-trifluoromethyl-benzyl)-piperidin-4-yl]-6-methyl-isochroman-5-ol dihydrochloride], for which the Ki in assay [1] was determined as 19.4 nM. In addition, the EC50 on D1 receptor came out at 77 nM.

In the case of `Cc1ccc2c(c1O)C[C@@H](C1CCN(Cc3ccncc3)CC1)O[C@H]2CN` [Example 54, (1R,3S)-1-Aminomethyl-6-methyl-3-(1-pyridin-4-ylmethyl-piperidin-4-yl)-isochroman-5-ol dihydrochloride], in assay [1], the Ki worked out at 153 nM. Moreover, at D1 receptor, the EC50 was found to be 45 nM.

Regarding `Cc1ccc2c(c1O)C[C@@H](C1CCN(Cc3ccc(O)cc3)CC1)O[C@H]2CN` [Example 62, (1R,3S)-1-Aminomethyl-3-[1-(4-hydroxy-benzyl)-piperidin-4-yl]-6-methyl-isochroman-5-ol dihydrochloride], in assay [1], the Ki was 46.1 nM. The EC50 on D1 receptor was found to be 14 nM.
